Key:
[1] = test system: HCV replicon (pSGR-399LM) in Huh7 cells; assay: Inhibitory activity in the HCV replicon system (Renilla luciferase); format: cell-based; settings: Hepatitis C virus, Huh-7, pSGR-399LM replicon Huh7 cells, 72 hr
Method: The Inhibitory Activity of Compounds in the HCV Replicon System
HCV replicon cell-line: The Huh7 cells were transfected with pSGR-399LM replicon DNA and cultured in the DMEM containing 10% FBS and 0.5 mg/mL G418. The cells were split at 1:3 to 1:5 every 3-4 days. The transfected cells were seeded in 96-well plates and cultured at 37° C., 5% CO2 for 24 hr.
Treatment with samples: To the HCV replicon Huh7 cells-line were added different concentration of the samples (i.e. compound Ik, wherein k=1, 2, 3 . . . 42), the each concentration for duplicate, and set no sample control wells. The concentration started at 400 nM, with quarter dilution to form five different concentrations of samples, that is 400 nM, 100 nM, 25 nM, 6.25 nM and 1.56 nM. The samples were added separately, and continued to incubated for 72 hr.
Fluorescence detection: After 72 hr treatment with sample, the cells were lysed and added with Renilla luciferase substrate to detect luminescent signal. The relative luminescent unit (RLU) in the luminometer was read out and used to calculate the inhibition rate of HCV.

[2] = test system: HCV (J399EM virus) in Huh7.5.1 cells; assay: Inhibition of HCV replication in HCV infected human hepatocellular carcinoma cells (Huh7.5.1), HCV-EGFP fluorescence; format: cell-based; settings: Hepatitis C virus, Huh-7.5.1, 72 h, read-out: HCV infected human hepatocellular carcinoma cells in vitro EC50(nM)
Method: In Vitro Inhibitory Activity of Compounds in HCV Replication in HCV Infected Human Hepatocellular Carcinoma Cells (Huh7.5.1)
The preparation of Huh7.5.1cells: Huh 7.5.1 cells were seeded at a 96-well plate with 37 and 5% CO2 for 24 hours incubation.
Virus infection: Using the J399EM virus supernatants (moi≈0.1) to infect Huh7.5.1cells. At the same time, the no virus infected cell will be set up as the control. After 8 hours virus infection, the virus will be washed out with PBS.
Drug treatment: The different doses of samples (i.e. the compound Ik, wherein k=1, 2, 3, . . . 42) were added in J399EM infected Huh7.5.1 cells, the each dose for duplicate. At the same time the no sample added in wells will be set up as the control. The test dose of sample is starting from 25 nM or 400 nM, with quarter dilution, 5 doses of sample will be added in the test wells, respectively, then continued for 72 hours incubation.
HCV-EGFP fluorescence detection: After samples treatment for 72 hours, the autofluorescence of HCV-EGFP were measured by the luminometer with excitation of 488 nm, and emission of 516 nm. The related fluorescence unit (RFU) of samples will be read out and used for calculating the inhibitory rates of compounds in HCV replication.

Compound | EC50 [1] [nM] | EC50 [2] [nM]
C=C[C@@H]1C[C@]1(NC(=O)[C@@H]1C[C@@H](Oc2cc(-c3ccccc3)nc3c2sc2cccc(Cl)c23)CN1C(=O)[C@@H](NC(=O)OC(C)(C)C)C(C)(C)C)C(=O)NS(=O)(=O)C1CC1 [Compound 1] | 100 to 1000 | 100 to 1000
C=C[C@@H]1C[C@]1(NC(=O)[C@@H]1C[C@@H](Oc2cc(-c3ccccc3)nc3c2oc2ccc(OC)cc23)CN1C(=O)[C@@H](NC(=O)OC(C)(C)C)C(C)(C)C)C(=O)NS(=O)(=O)C1CC1 [Compound 3, tert-butyl(S)-1-((2S,4R)-2-((1R,2S)-1-(cyclopropylsulfonylcarbamoyl)-2-vinylcyclopropylcarbamoyl)-4-(8-methoxy-2-phenylbenzofuro [3,2-b]pyridin-4-yloxy)pyrrolidin-1-yl)-3,3-dimethyl-1-oxobutan-2-yl carbamate] | < 100 | 100 to 1000
C=C[C@@H]1C[C@]1(NC(=O)[C@@H]1C[C@@H](Oc2cc(-c3ccccc3)nc3c2oc2ccc(Cl)cc23)CN1C(=O)[C@@H](NC(=O)OC(C)(C)C)C(C)(C)C)C(=O)NS(=O)(=O)C1CC1 [Compound 4, tert-butyl(S)-1-((2S,4R)-4-(8-chloro-2-phenylbenzofuro[3,2-b]pyridin-4-yloxy)-2-((1R,2S)-1-(cyclopropylsulfonylcarbamoyl)-2-vinylcyclopropylcarbamoyl)pyrrolidin-1-yl)-3,3-dimethyl-1-oxobutan-2-yl carbamate] | < 100 | 100 to 1000
CC(C)(C)OC(=O)N[C@H]1CCCCC/C=C\[C@@H]2C[C@@]2(C(=O)NS(=O)(=O)C2CC2)NC(=O)[C@@H]2C[C@@H](Oc3nc4c5ccccc5oc4c4ccccc34)CN2C1=O [Compound 6] | < 100 | < 100
C=C[C@@H]1C[C@]1(NC(=O)[C@@H]1C[C@@H](Oc2cc(-c3ccccc3)nc3c2sc2cc(F)ccc23)CN1C(=O)[C@@H](NC(=O)OC(C)(C)C)C(C)(C)C)C(=O)NS(=O)(=O)C1CC1 [Compound 7] | < 100 | < 100
C=C[C@@H]1C[C@]1(NC(=O)[C@@H]1C[C@@H](Oc2cc(-c3ccccc3)nc3c2oc2ccc(Br)cc23)CN1C(=O)[C@@H](NC(=O)OC(C)(C)C)C(C)(C)C)C(=O)NS(=O)(=O)C1CC1 [Compound 8] | < 100 | 100 to 1000
C=C[C@@H]1C[C@]1(NC(=O)[C@@H]1C[C@@H](Oc2cc(-c3ccccc3)nc3c2sc2ccccc23)CN1C(=O)[C@@H](NC(=O)OC(C)(C)C)C(C)(C)C)C(=O)NS(=O)(=O)C1CC1 [Compound 9] | < 100 | 100 to 1000
CC(C)(C)OC(=O)N[C@H]1CCCCC/C=C\[C@@H]2C[C@@]2(C(=O)NS(=O)(=O)C2CC2)NC(=O)[C@@H]2C[C@@H](Oc3nc4c5ccc(F)cc5sc4c4ccccc34)CN2C1=O [Compound 10] | < 100 | < 100
C=C[C@@H]1C[C@]1(NC(=O)[C@@H]1C[C@@H](Oc2nc3c4cc(Cl)ccc4oc3c3ccccc23)CN1C(=O)[C@@H](NC(=O)OC(C)(C)C)C(C)(C)C)C(=O)NS(=O)(=O)C1CC1 [Compound 11] | < 100 | 100 to 1000
C=C[C@@H]1C[C@]1(NC(=O)[C@@H]1C[C@@H](Oc2nc3c4ccc(F)cc4sc3c3ccccc23)CN1C(=O)[C@@H](NC(=O)OC(C)(C)C)C(C)(C)C)C(=O)NS(=O)(=O)C1CC1 [Compound 12] | < 100 | 100 to 1000
C=C[C@@H]1C[C@]1(NC(=O)[C@@H]1C[C@@H](Oc2nc3c4cc(Cl)ccc4oc3c3ccccc23)CN1C(=O)[C@@H](CC(=O)OC(C)(C)C)C(C)(C)C)C(=O)NS(=O)(=O)C1CC1 [Compound 13] | 100 to 1000 | 100 to 1000
C=C[C@@H]1C[C@]1(NC(=O)[C@@H]1C[C@@H](Oc2nc3c4cc(Cl)ccc4oc3c3ccccc23)CN1C(=O)[C@@H](CC(=O)N1CCCCC1)C(C)(C)C)C(=O)NS(=O)(=O)C1CC1 [Compound 14, (2S,4R)-1-((S)-2-tert-butyl-4-oxo-4-(piperidin-1-yl)butanoyl)-4-(8-chlorobenzofuro[3,2-c]isoquinolin-5-yloxy)-N-((1R,2S)-1-(cyclopropylsulfonylcarbamoyl)-2-vinylcyclopropyl)pyrrolidine-2-carboxamide] | < 100 | 100 to 1000
C=C[C@@H]1C[C@]1(NC(=O)[C@@H]1C[C@@H](Oc2nc3c4cc(OC)ccc4oc3c3ccccc23)CN1C(=O)[C@@H](NC(=O)OC(C)(C)C)C(C)(C)C)C(=O)NS(=O)(=O)C1CC1 [Compound 15] | 100 to 1000 | 100 to 1000
CC(C)(C)OC(=O)N[C@H]1CCCCC/C=C\[C@@H]2C[C@@]2(C(=O)NS(=O)(=O)C2CC2)NC(=O)[C@@H]2C[C@@H](Oc3nc4c5ccccc5oc4c4ccc(Br)cc34)CN2C1=O [Compound 16] | < 100 | < 100
CC(C)(C)OC(=O)N[C@H]1CCCCC/C=C\[C@@H]2C[C@@]2(C(=O)NS(=O)(=O)C2CC2)NC(=O)[C@@H]2C[C@@H](Oc3nc4c5ccccc5oc4c4ccc(Cl)cc34)CN2C1=O [Compound 17] | < 100 | < 100
COc1ccc2oc3c4ccc(Cl)cc4c(O[C@@H]4C[C@H]5C(=O)N[C@]6(C(=O)NS(=O)(=O)C7CC7)C[C@H]6/C=C\CCCCC[C@H](NC(=O)OC(C)(C)C)C(=O)N5C4)nc3c2c1 [Compound 19] | < 100 | < 100
C=C[C@@H]1C[C@]1(NC(=O)[C@@H]1C[C@@H](Oc2nc3c4ccccc4oc3c3ccc(Cl)cc23)CN1C(=O)[C@@H](NC(=O)OC1CCCC1)C(C)(C)C)C(=O)NS(=O)(=O)C1CC1 [Compound 20] | < 100 | < 100
C=C[C@@H]1C[C@]1(NC(=O)[C@@H]1C[C@@H](Oc2cc(-c3ccccc3)nc3c2oc2ccc(OC)cc23)CN1C(=O)[C@@H](NC(=O)OC1CCCC1)C(C)(C)C)C(=O)NS(=O)(=O)C1CC1 [Compound 21] | < 100 | 100 to 1000
C=C[C@@H]1C[C@]1(NC(=O)[C@@H]1C[C@@H](Oc2cc(-c3ccccc3)nc3c2oc2ccc(OC)c(Cl)c23)CN1C(=O)[C@@H](NC(=O)OC1CCCC1)C(C)(C)C)C(=O)NS(=O)(=O)C1CC1 [Compound 22] | < 100 | < 100
C=C[C@@H]1C[C@]1(NC(=O)[C@@H]1C[C@@H](Oc2cc(-c3ccccc3)nc3c2oc2ccc(OC)c(Cl)c23)CN1C(=O)[C@@H](NC(=O)OC(C)(C)C)C(C)(C)C)C(=O)NS(=O)(=O)C1CC1 [Compound 23] | < 100 | < 100
C=C[C@@H]1C[C@]1(NC(=O)[C@@H]1C[C@@H](Oc2cc(-c3csc(C(C)C)n3)nc3c2oc2ccc(OC)c(Cl)c23)CN1C(=O)[C@@H](NC(=O)OC(C)(C)C)C(C)(C)C)C(=O)NS(=O)(=O)C1CC1 [Compound 24] | < 100 | < 100
C=C[C@@H]1C[C@]1(NC(=O)[C@@H]1C[C@@H](Oc2cc(-c3csc(C(C)(C)O)n3)nc3c2oc2ccc(OC)c(Cl)c23)CN1C(=O)[C@@H](NC(=O)OC(C)(C)C)C(C)(C)C)C(=O)NS(=O)(=O)C1CC1 [Compound 25] | < 100 | < 100
C=C[C@@H]1C[C@]1(NC(=O)[C@@H]1C[C@@H](Oc2cc(-c3csc(C(C)(C)O)n3)nc3c2oc2ccc(OC)c(Br)c23)CN1C(=O)[C@@H](NC(=O)OC(C)(C)C)C(C)(C)C)C(=O)NS(=O)(=O)C1CC1 [Compound 26] | < 100 | < 100
C=C[C@@H]1C[C@]1(NC(=O)[C@@H]1C[C@@H](Oc2cc(-c3ccccc3)nc3c2oc2ccc(OC)c(Br)c23)CN1C(=O)[C@@H](NC(=O)OC(C)(C)C)C(C)(C)C)C(=O)NS(=O)(=O)C1CC1 [Compound 27] | < 100 | < 100
C=C[C@@H]1C[C@]1(NC(=O)[C@@H]1C[C@@H](Oc2cc(-c3ccccc3)nc3c2oc2ccc(OC)c(Br)c23)CN1C(=O)[C@@H](NC(=O)OC1CCCC1)C(C)(C)C)C(=O)NS(=O)(=O)C1CC1 [Compound 28] | < 100 | < 100
C=C[C@@H]1C[C@]1(NC(=O)[C@@H]1C[C@@H](Oc2nc3c4ccccc4oc3c3ccc(Cl)cc23)CN1C(=O)[C@@H](NC(=O)OC(C)(C)C)C(C)(C)C)C(=O)NS(=O)(=O)C1CC1 [Compound 29] | < 100 | < 100
C=C[C@@H]1C[C@]1(NC(=O)[C@@H]1C[C@@H](Oc2nc3c4ccccc4oc3c3ccc(Br)cc23)CN1C(=O)[C@@H](NC(=O)OC(C)(C)C)C(C)(C)C)C(=O)NS(=O)(=O)C1CC1 [Compound 30] | 100 to 1000 | 100 to 1000
C=C[C@@H]1C[C@]1(NC(=O)[C@@H]1C[C@@H](Oc2nc3c4ccccc4oc3c3ccc(OC)cc23)CN1C(=O)[C@@H](NC(=O)OC(C)(C)C)C(C)(C)C)C(=O)NS(=O)(=O)C1CC1 [Compound 31] | 100 to 1000 | 100 to 1000
